Measured values reported in US12522587B2, “Cancer treatments targeting cancer stem cells” (Remedy Plan, Inc., priority 2018, dated 2026).

Test system: AGS human gastric adenocarcinoma cells
Assay: Human microarray study (Affymetrix Clariom S) of treated AGS cells
Format: cell-based
Settings: two days, positive = downregulated
Procedure: AGS human gastric adenocarcinoma cells were treated with compound I-1, or DMSO alone (as a negative control) for two days. After two days, RNA was isolated from compound I-1 treated cells and DMSO treated cells, in duplicate, and subjected to microarray analysis using AFFYMETRIX CLARIOM S microarrays. Data were represented as fold change relative to the compound I-1 treated cells, negative values represented genes that were on higher in compound I-1 treated cells than in DMSO treated cells, and positive values represented genes that were on higher in DMSO treated cells than in compound I-1 treated cells. Values were averaged for the duplicate samples. We included data for the genes whose expression was altered by more than 3 fold, either up or down, in response to compound I-1.
Negative numbers indicate fold upregulation upon drug treatment. Positive numbers indicate fold downregulation upon drug treatment. […] In addition, Chac1, PCK2, and SLC7A11 were all shown to have a tumor promoting activity and to be associated with the more dangerous and lethal forms of cancer, and these three genes were the three most strongly repressed genes measured in this analysis. There were other examples in the data that supported this model, but the overall model was that compound I-1 increased the expression of tumor suppressor genes, and decreased the expression of tumor promoting genes.

CCC(=O)N1CCc2cc(-c3ccc(C(=O)NCc4cccnc4)cc3)ccc21 [Compound I-1]
Fold Change CEBPG: 3.29 fold
Fold Change CHAC1: 43.64 fold
Fold Change CRNDE: 7.6 fold
Fold Change CTH: 12.23 fold
Fold Change CTNS: 3.16 fold
Fold Change CYP1A1: 12.34 fold
Fold Change DCLRE1A: 3.36 fold
Fold Change DDIT3: 3.76 fold
Fold Change DDIT4: 14.73 fold
Fold Change DEPTOR: 3.05 fold
Fold Change DMBT1: 3.25 fold
Fold Change EEF2KMT: 4.01 fold
Fold Change EFHC1: 3.67 fold
Fold Change EIF4EBP1: 6.66 fold
Fold Change ERICH2: 3.35 fold
Fold Change EXOSC8: 3.68 fold
Fold Change FAIM: 3.09 fold
Fold Change FAM27E3: 4.39 fold
Fold Change FAM86B1: 3.53 fold
Fold Change FAM86C1: 3.18 fold
Fold Change FAM111B: 3.46 fold
Fold Change FAM216A: 3 fold
Fold Change FIGNL1: 4.84 fold
Fold Change FILIP1L: 3.7 fold
Fold Change FUT1: 3.48 fold
Fold Change GARS: 3.24 fold
Fold Change GEN1: 3.39 fold
Fold Change GPX8: 3.7 fold
Fold Change GRB10: 3.1 fold
Fold Change GSTM2: 3.25 fold
Fold Change GSTM4: 4.02 fold
Fold Change GTPBP2: 4.3 fold
Fold Change H1F0: 3.59 fold
Fold Change HAX1: 3.68 fold
Fold Change HIST1H1B: 4.91 fold
Fold Change HIST1H1C: 4.26 fold
Fold Change HIST1H1D: 5.18 fold
Fold Change HIST1H1E: 3.75 fold
Fold Change HIST1H2AB: 6.88 fold
Fold Change HIST1H2AE: 5.92 fold
Fold Change HIST1H2AG: 5.06 fold
Fold Change HIST1H2AI: 5.81 fold
Fold Change HIST1H2AJ: 3.77 fold
Fold Change HIST1H2AK: 3.52 fold
Fold Change HIST1H2AL; HIST1H2BN: 3.72 fold
Fold Change HIST1H2AM; HIST1H3J: 6.91 fold
Fold Change HIST1H2BB: 3.09 fold
Fold Change HIST1H2BE: 3.05 fold
Fold Change HIST1H2BF: 3.75 fold
Fold Change HIST1H2BG: 3.8 fold
Fold Change HIST1H2BH: 3.09 fold
Fold Change HIST1H2BI: 8.02 fold
Fold Change HIST1H2BJ: 4.83 fold
Fold Change HIST1H2BK: 3.06 fold
Fold Change HIST1H2BL: 5.51 fold
Fold Change HIST1H2BM: 12.33 fold
Fold Change HIST1H3A: 3.04 fold
Fold Change HIST1H3B: 5.94 fold
Fold Change HIST1H3D; HIST1H2AD: 4.82 fold
Fold Change HIST1H3F: 6.21 fold
Fold Change HIST1H3G: 9.34 fold
Fold Change HIST1H3H: 7.63 fold
Fold Change HIST1H3I: 4.49 fold
Fold Change HIST1H4A: 5.75 fold
Fold Change HIST1H4D: 3.02 fold
Fold Change HIST1H4H: 3.25 fold
Fold Change HIST2H2AA3; HIST2H2AA4: 3.2 fold
Fold Change HIST2H2AA4; HIST2H2AA3: 3.08 fold
Fold Change HIST2H3A: 10.31 fold
Fold Change HIST2H3A; HIST2H3C: 8.95 fold
Fold Change HIST2H3D: 4.21 fold
Fold Change HIST2H4A; HIST2H4B: 3.94 fold
Fold Change HIST2H4B; HIST2H4A: 3.79 fold
Fold Change HMMR: 4.62 fold
Fold Change HOXB9: 5.66 fold
Fold Change IARS: 3.29 fold
Fold Change IFRD1: 6.11 fold
Fold Change IFT88: 4.63 fold
Fold Change IGF2BP3: 5.34 fold
Fold Change IL20RB: 4.75 fold
Fold Change INHBE: 12.74 fold
Fold Change IRAK1BP1: 3.59 fold
Fold Change IZUMO1: 4.5 fold
Fold Change JDP2: 4.94 fold
Fold Change KIF15: 3.66 fold
Fold Change KIF21B: 3.52 fold
Fold Change KLHL5: 3.17 fold
Fold Change LGALS4: 3.06 fold
Fold Change LMO4: 3.1 fold
Fold Change LRRC8D: 3.82 fold
Fold Change LYRM7: 3.58 fold
Fold Change MARS; MIR6758: 3.79 fold
Fold Change MAT2A: 5.04 fold
Fold Change MB21D2: 4.66 fold
Fold Change METTL4: 4.39 fold
Fold Change MINA: 3.05 fold
Fold Change MIR17HG; MIR17; MIR18A; MIR19A; MIR19B1; MIR20A; MIR92A1: 3.18 fold
Fold Change MOCOS: 5.87 fold
Fold Change MTHFD2: 3.26 fold
Fold Change NCOA5: 3 fold
Fold Change NCOA7: 3.2 fold
Fold Change NEDD4: 3.11 fold
Fold Change NOX1: 6.01 fold
Fold Change NPIPA2: 3.06 fold
Fold Change NPIPA3: 3.17 fold
Fold Change NPIPA5: 3.15 fold
Fold Change NPIPA7; NPIPA8; PKD1P1: 3.01 fold
Fold Change NPIPA8: 3.2 fold
Fold Change NUPR1: 5.76 fold
Fold Change ORAOV1: 3.3 fold
Fold Change PCK2: 17.83 fold
Fold Change PDK1: 3.5 fold
Fold Change PHLDB2; PLCXD2: 3.75 fold
Fold Change PKD1; MIR6511B2; MIR6511B1: 3.36 fold
Fold Change PKD2: 3.76 fold
Fold Change PKDCC: 3.89 fold
Fold Change PRIM1: 4.42 fold
Fold Change PSAT1: 7.92 fold
Fold Change PSPH: 4.23 fold
Fold Change PTER: 3.93 fold
Fold Change PTPRB: 3.96 fold
Fold Change PYROXD1: 3.74 fold
Fold Change RASGRP3: 3.19 fold
Fold Change RASIP1: 3.21 fold
Fold Change RBBP9: 3.05 fold
Fold Change RBCK1: 4.36 fold
Fold Change REG4: 3.04 fold
Fold Change RFXAP: 4.14 fold
Fold Change RNF170; MIR4469: 3.95 fold
Fold Change S100P: 4.36 fold
Fold Change SERPINB8: 6.07 fold
Fold Change SETMAR: 3.32 fold
Fold Change SH2B3: 4.5 fold
Fold Change SHMT2: 3.22 fold
Fold Change SLC1A4: 8.26 fold
Fold Change SLC1A5: 4.04 fold
Fold Change SLC6A9: 7.78 fold
Fold Change SLC7A1: 3.19 fold
Fold Change SLC7A5: 7.31 fold
Fold Change SLC7A11: 15.27 fold
Fold Change SLC16A4: 3.65 fold
Fold Change SLC38A1: 3.03 fold
Fold Change SLC43A1: 8.25 fold
Fold Change SLC46A1: 5.39 fold
Fold Change SLCO1B3: 3.61 fold
Fold Change ST6GALNAC3: 4.78 fold
Fold Change STAMBPL1: 3 fold
Fold Change STPG1: 3.97 fold
Fold Change SYNPO: 3.2 fold
Fold Change TADA2A: 3.37 fold
Fold Change TFF1: 11.81 fold
Fold Change THOC1: 3.18 fold
Fold Change TMEM218: 3.29 fold
Fold Change TNFRSF9: 8.19 fold
Fold Change TSEN15: 3.5 fold
Fold Change TUBE1: 5.83 fold
Fold Change UNC93A: 3.31 fold
Fold Change WARS: 4.85 fold
Fold Change WBP4: 3.63 fold
Fold Change XPA: 3.25 fold
Fold Change XRCC2: 3.5 fold
Fold Change YAE1D1: 3.02 fold
Fold Change ZBED8: 4.58 fold
Fold Change ZC3H8: 4.04 fold
Fold Change ZCCHC8: 3.9 fold
Fold Change ZFAND1: 3.29 fold
Fold Change ZNF302: 4.83 fold
Fold Change ZNF518A: 4.12 fold
Fold Change ZNF780B (first ZNF780B entry): 3.19 fold
Fold Change ZNF780B (second ZNF780B entry): 3.19 fold
